Experimental data from US8476197B2, “Aminopropenoates as fungicides” (priority 2009, dated 2013).
Read-outs that look alike come from different tables or passages of the source. Marks after values point to notes of the source that are not given here.

## CCOC(=O)C(C#N)=C(NC(C)c1ccccn1)c1cn(C)nc1C(C)C (stereo not drawn) [Compound 1207]
pH 2.7
  Log P: 2.58^[a]

## CCOC(=O)C(C#N)=C(NC(C)C(C)C)c1cn(C)nc1C(C)C (stereo not drawn) [Compound 1208]
pH 2.7
  Log P: 3.46^[a]

## CCOC(=O)C(C#N)=C(NC(C)C(C)C)c1ccnc(Br)c1Cl (stereo not drawn) [Compound 1209]
pH 2.7
  Log P: 3.94^[a]

## CCNC(=O)C(C#N)=C(NC(C)C(C)C)c1ccnc(Br)c1Cl (stereo not drawn) [Compound 1210]
pH 2.7
  Log P: 3.6^[a]

## CCOC(=O)C(C#N)=C(NC(C)C(C)C)c1ccnc(C)c1Cl (stereo not drawn) [Compound 1211]
pH 2.7
  Log P: 3.51^[a]

## CCOC(=O)C(C#N)=C(NC(C)c1nccs1)c1cn(C)nc1C (stereo not drawn) [Compound 1212]
pH 2.7
  Log P: 2.11^[a]

## CCOC(=O)C(C#N)=C(NC(C)c1nccs1)c1cn(C)nc1CC (stereo not drawn) [Compound 1213]
pH 2.7
  Log P: 2.35^[a]

## CCOC(=O)C(C#N)=C(NC(C)c1nccs1)c1cn(C)nc1C(C)C (stereo not drawn) [Compound 1214]
pH 2.7
  Log P: 2.62^[a]

## CCOC(=O)C(C#N)=C(NC(C)(C)c1ccc(Cl)cc1)c1cn(C)nc1C(F)F [Compound 1215]
pH 2.7
  Log P: 3.71^[a]

## CCOC(=O)C(C#N)=C(Nc1ccccc1Cl)c1cn(C)nc1C(F)F [Compound 1216]
pH 2.7
  Log P: 3.15^[a]

## CCOC(=O)C(C#N)=C(Nc1ccc(C#N)cc1)c1cn(C)nc1C(F)F [Compound 1217]
pH 2.7
  Log P: 2.64^[a]

## CCOC(=O)C(C#N)=C(NC(C#N)c1ccccc1Br)c1cn(C)nc1C(F)F (stereo not drawn) [Compound 1218]
pH 2.7
  Log P: 3.13^[a]

## CCOC(=O)C(C#N)=C(NC(C#N)c1cccc(Cl)c1Cl)c1cn(C)nc1C(F)F (stereo not drawn) [Compound 1219]
pH 2.7
  Log P: 3.44^[a]

## C#CCC(C#N)NC(=C(C#N)C(=O)OCC)c1cn(C)nc1C(F)F (stereo not drawn) [Compound 1220]
pH 2.7
  Log P: 2.33^[a]

## CCOC(=O)C(C#N)=C(NC(C#N)Cc1ccccc1)c1cn(C)nc1C(F)F (stereo not drawn) [Compound 1221]
pH 2.7
  Log P: 2.98^[a]

## CCOC(=O)C(C#N)=C(NC(c1ccc(Cl)cc1)C(F)(F)F)c1cn(C)nc1C(F)F (stereo not drawn) [Compound 1222]
pH 2.7
  Log P: 4.01^[a]

## CCOC(=O)C(C#N)=C(NC(Cc1ncccc1C)C(F)(F)F)c1cn(C)nc1C(F)F (stereo not drawn) [Compound 1223]
pH 2.7
  Log P: 2.94^[a]

## CCOC(=O)C(C#N)=C(NC(c1ccccc1)C(F)(F)F)c1cn(C)nc1C(F)F (stereo not drawn) [Compound 1224]
pH 2.7
  Log P: 3.55^[a]

## CCOC(=O)C(C#N)=C(NC(C)c1cccc(OC)c1)c1cn(C)nc1C(F)F (stereo not drawn) [Compound 1225]
pH 2.7
  Log P: 3.21^[a]

## CCOC(=O)C(C#N)=C(Nc1ccccc1C(=O)C1CC1)c1cn(C)nc1C(F)F [Compound 1226]
pH 2.7
  Log P: 3^[a]

## CCOC(=O)C(C#N)=C(Nc1ccccc1OC(F)(F)F)c1cn(C)nc1C(F)F [Compound 1227]
pH 2.7
  Log P: 3.42^[a]

## CCOC(=O)C(C#N)=C(Nc1ccccc1SCC)c1cn(C)nc1C(F)F [Compound 1228]
pH 2.7
  Log P: 3.46^[a]

## CCOC(=O)C(C#N)=C(NC(C)(C)c1ccc(OC)cc1)c1cn(C)nc1C(F)F [Compound 1229]
pH 2.7
  Log P: 3.35^[a]

## CCOC(=O)C(C#N)=C(NC(C#N)c1ccccc1)c1cn(C)nc1C(F)F (stereo not drawn) [Compound 1230]
pH 2.7
  Log P: 2.94^[a]

## CCOC(=O)C(C#N)=C(NC(C#N)c1ccc(Cl)cc1Cl)c1cn(C)nc1C(F)F (stereo not drawn) [Compound 1231]
pH 2.7
  Log P: 3.55^[a]

## CCOC(=O)C(C#N)=C(NC(C#N)c1cnn(-c2ccccc2)c1)c1cn(C)nc1C(F)F (stereo not drawn) [Compound 1232]
pH 2.7
  Log P: 3.15^[a]

## CCOC(=O)C(C#N)=C(NC(C)COCc1ccc(C(F)(F)F)cc1)c1cn(C)nc1C(F)F (stereo not drawn) [Compound 1233]
pH 2.7
  Log P: 3.99^[a]

## CCOC(=O)C(C#N)=C(NC(C)CSc1ccc(Cl)cc1)c1cn(C)nc1C(F)F (stereo not drawn) [Compound 1234]
pH 2.7
  Log P: 3.87^[a]

## CCOC(=O)C(C#N)=C(NC(C)(C)C#Cc1ccc(C#N)cc1)c1cn(C)nc1C(F)F [Compound 1238]
pH 2.7
  Log P: 3.69^[a]

## CON(C)C(=O)C(C#N)=C(NC(C)C(C)C)c1cccnc1Cl (stereo not drawn) [Compound 1246]
pH 2.3
  Log P: 2.68
pH 7.5
  Log P: 2.67

## CCNC(=O)C(C#N)=C(NC(C)C(C)C)c1ccnc(C)c1Cl (stereo not drawn) [Compound 1249]
pH 2.7
  Log P: 3.08^[a]

## CCOC(=O)C(C#N)=C(NCC(N)=O)c1cn(C)nc1C(F)F [Compound 1255]
pH 2.7
  Log P: 2.1^[a]

## CCOC(=O)C(C#N)=C(Nc1ccccc1Cl)c1cccnc1Cl [Compound 1263]
pH 2.7
  Log P: 3.35^[a]

## CCOC(=O)C(C#N)=C(Nc1ccc(N(C)C)cc1)c1cccnc1Cl [Compound 1264]
pH 2.7
  Log P: 3.17^[a]

## CCOC(=O)C(C#N)=C(Nc1ccc(C#N)cc1)c1cccnc1Cl [Compound 1265]
pH 2.7
  Log P: 2.73^[a]

## CCOC(=O)C(C#N)=C(Nc1cccc(SC)c1)c1cccnc1Cl [Compound 1266]
pH 2.7
  Log P: 3.42^[a]

## CCOC(=O)C(C#N)=C(NC(C)(C)C#Cc1ccc(C)cc1)c1cccnc1Cl [Compound 1268]
pH 2.7
  Log P: 4.41^[a]

## CCOC(=O)C(C#N)=C(Nc1ccc2ncsc2c1)c1cccnc1Cl [Compound 1269]
pH 2.7
  Log P: 2.54^[a]

## CCOC(=O)C(C#N)=C(NC(C)(C)C=C(Cl)Cl)c1cccnc1Cl [Compound 1271]
pH 2.7
  Log P: 3.55^[a]

## CCOC(=O)C(C#N)=C(NC(C)(C)C#Cc1ccc(C#N)cc1)c1cccnc1Cl [Compound 1272]
pH 2.7
  Log P: 3.67^[a]

## CCOC(=O)C(C#N)=C(NC(C)(C)C(C)(C)C)c1cccnc1Cl [Compound 1273]
pH 2.7
  Log P: 3.8^[a]

## CCOC(=O)C(C#N)=C(NC(C)(C)C(=O)OC)c1cccnc1Cl [Compound 1274]
pH 2.7
  Log P: 2.66^[a]

## CC#CC1(NC(=C(C#N)C(=O)OCC)c2cccnc2Cl)CCCC1 [Compound 1275]
pH 2.7
  Log P: 3.69^[a]

## CCOC(=O)C(C#N)=C(NC(C)c1nccs1)c1ccnc(Cl)c1Cl (stereo not drawn) [Compound 1276]
pH 2.7
  Log P: 2.96
pH 7.5
  Log P: 2.91

## CCNC(=O)C(C#N)=C(NC(C)C(C)C)c1cn(C)nc1C(F)F (stereo not drawn) [Compound 1278]
pH 2.7
  Log P: 2.71^[a]

## CC(NC(=C(C#N)C(=O)OC1COC1)c1cccnc1Cl)C1CC1 (stereo not drawn) [Compound 1281]
pH 7.5
  Log P: 2.31

## CCN(C)C(=O)C(C#N)=C(NC(C)C(C)C)c1cccnc1Cl (stereo not drawn) [Compound 1282]
pH 2.3
  Log P: 2.91
pH 7.5
  Log P: 2.9

## CC(C)C(C)NC(=O)C(C#N)=C(NC(C)C(C)C)c1cccnc1Cl (stereo not drawn) [Compound 1283]
pH 2.3
  Log P: 4.02^[c]; 4.02^[b]
pH 7.5
  Log P: 4.02^[c]; 4.02^[b]

## CC(C)C(C)NC(=C(C#N)C(=O)OC1CCC1)c1cccnc1Cl (stereo not drawn) [Compound 1284]
pH 2.3
  Log P: 3.79^[c]; 3.79^[b]
pH 7.5
  Log P: 3.79^[c]; 3.79^[b]

## CCOC(=O)C(C#N)=C(NC(C)c1nccs1)c1ccnc(C)c1Cl (stereo not drawn) [Compound 1285]
pH 2.7
  Log P: 2.57^[a]

## CC(C)C(C)NC(=C(C#N)C(=O)N(C)C)c1cn(C)nc1C(F)F (stereo not drawn) [Compound 1286]
pH 2.7
  Log P: 2.45^[a]

## CCNC(=O)C(C#N)=C(NC(C)c1nccs1)c1ccnc(Cl)c1Cl (stereo not drawn) [Compound 1289]
pH 2.7
  Log P: 2.57^[a]

## CCOC(=O)C(C#N)=C(NC(C)c1nccs1)c1ccnc(Br)c1Cl (stereo not drawn) [Compound 1290]
pH 2.7
  Log P: 3.02^[a]

## CC(NC(=C(C#N)C(=O)N(C)C)c1cn(C)nc1C(F)F)c1ccccn1 (stereo not drawn) [Compound 1295]
pH 2.7
  Log P: 1.59^[a]

## CC(NC(=C(C#N)C(=O)N(C)C)c1cn(C)nc1C(F)F)c1nccs1 (stereo not drawn) [Compound 1296]
pH 2.7
  Log P: 1.81^[a]

## C#CCNC(=O)C(C#N)=C(NC(C)c1nccs1)c1cn(C)nc1C(F)F (stereo not drawn) [Compound 1297]
pH 2.7
  Log P: 2.04^[a]

## CC(C)[C@H](C)N/C(=C(/C#N)C(=O)NC1COC1)c1cn(C)nc1C(F)F [Compound 1298]
pH 2.7
  Log P: 1.84^[a]

## CC(C)C(C)NC(=C(C#N)C(=O)NCCC#N)c1cn(C)nc1C(F)F (stereo not drawn) [Compound 1299]
pH 2.7
  Log P: 2.44^[a]

## CCOC(=O)C(C#N)=C(NC(C)c1ccccn1)c1cnn(C)c1C(F)F (stereo not drawn) [Compound 1300]
pH 2.7
  Log P: 2.41^[a]

## CCOC(=O)C(C#N)=C(NC(C)C(C)C)c1cnn(C)c1C(F)F (stereo not drawn) [Compound 1301]
pH 2.7
  Log P: 3.23^[a]

## CCOC(=O)C(C#N)=C(NC(C)c1nccs1)c1cnn(C)c1C(F)F (stereo not drawn) [Compound 1302]
pH 2.7
  Log P: 2.46^[a]

## CCOC(=O)C(C#N)=C(NC(C)C1CC1)c1cnn(C)c1C(F)F (stereo not drawn) [Compound 1303]
pH 2.7
  Log P: 2.98^[a]

## CCOC(=O)C(C#N)=C(NC1CCC1)c1cnn(C)c1C(F)F [Compound 1304]
pH 2.7
  Log P: 2.84^[a]

## CCNC(=O)C(C#N)=C(NC(C)c1nccs1)c1ccnc(Br)c1Cl (stereo not drawn) [Compound 1305]
pH 2.7
  Log P: 2.62^[a]

## CCNC(=O)C(C#N)=C(NC(C)c1nccs1)c1ccnc(C)c1Cl (stereo not drawn) [Compound 1306]
pH 2.7
  Log P: 2.18^[a]

## CCNC(=O)C(C#N)=C(NC(C)c1nccs1)c1cnn(C)c1C(F)F (stereo not drawn) [Compound 1308]
pH 2.7
  Log P: 2.11^[a]

## CCNC(=O)C(C#N)=C(NC(C)C1CC1)c1cnn(C)c1C(F)F (stereo not drawn) [Compound 1309]
pH 2.7
  Log P: 2.64^[a]

## CCOC(=O)C(C#N)=C(Nc1cnc2sccc2c1)c1cccnc1Cl [Compound 1310]
pH 2.3
  Log P: 2.56
pH 7.5
  Log P: 2.49

## CCOC(=O)C(C#N)=C(NC(C)C(C)C)c1ccnc(Cl)c1F (stereo not drawn) [Compound 1311]
pH 2.7
  Log P: 3.81^[a]

## CCOC(=O)C(C#N)=C(NC(C)c1ccccn1)c1ccnc(Cl)c1F (stereo not drawn) [Compound 1312]
pH 2.7
  Log P: 3^[a]

## CCOC(=O)C(C#N)=C(NC(C)c1nccs1)c1ccnc(Cl)c1F (stereo not drawn) [Compound 1313]
pH 2.7
  Log P: 2.96^[a]

## CCOC(=O)C(C#N)=C(NC(C)C(C)C)c1ccnc(Br)c1F (stereo not drawn) [Compound 1315]
pH 2.7
  Log P: 3.87^[a]

## CCNC(=O)C(C#N)=C(NC(C)C(C)C)c1ccnc(Cl)c1F (stereo not drawn) [Compound 1316]
pH 2.7
  Log P: 3.44^[a]

## CCOC(=O)C(C#N)=C(NC(C)C(C)C)c1ccnc(C)c1F (stereo not drawn) [Compound 1317]
pH 2.7
  Log P: 3.31^[a]

## CCOC(=O)C(C#N)=C(NC(C)C1CC1)c1ccnc(Cl)c1F (stereo not drawn) [Compound 1318]
pH 2.7
  Log P: 3.5^[a]

## CCOC(=O)C(C#N)=C(NC(C)c1nccs1)c1ccnc(C)c1F (stereo not drawn) [Compound 1319]
pH 2.7
  Log P: 2.48^[a]

## CCOC(=O)C(C#N)=C(NC(C)c1ccccn1)c1ccnc(C)c1F (stereo not drawn) [Compound 1320]
pH 2.7
  Log P: 2.5^[a]

## CCOC(=O)C(C#N)=C(NC1CCC1)c1ccnc(Cl)c1F [Compound 1321]
pH 2.7
  Log P: 3.39^[a]

## CCNC(=O)C(C#N)=C(NC(C)C(C)C)c1ccnc(Br)c1F (stereo not drawn) [Compound 1323]
pH 2.7
  Log P: 3.46^[a]

## CCOC(=O)C(C#N)=C(NC(C)C(=O)NC)c1ccnc(Cl)c1F (stereo not drawn) [Compound 1324]
pH 2.7
  Log P: 2.15^[a]

## CC#CC(C)NC(=C(C#N)C(=O)OCC)c1ccnc(Cl)c1F (stereo not drawn) [Compound 1325]
pH 2.7
  Log P: 3.39^[a]
